# Test results taken from EP4385980A1, “INDAZOLES AS INHIBITORS OF NAV1.8” (Grünenthal GmbH, priority 2022, dated 2024).
# pIC50: −log10 of the molar value.
# Molecular target: T1, human NaV1.8 (Homo sapiens, UniProt Q9Y5Y9)
# T1 construct: expressed in transfected cells; host or cells: HEK
# Assay: Electrophysiology: voltage-clamp recordings (whole-cell automated patch clamp, Qube384)
# Format: cell-based
# Settings: HEK-NaV1.8 with b3 recombinant cell line, ambient room temperature, read-out: Potency category (human NaV1.8 IC50)
# Method: The following NaV1.8 recombinant cell line was used for recordings: HEK-NaV1.8 (NM_006514.1) with b3 (NM_018400.3).
# Sodium currents were measured using the patch clamp technique in the whole-cell configuration using the Qube384 (Sophion A/S, Copenhagen, Denmark) automated voltage clamp platform. "Multi hole" plates were used for the cell line expressing NaV1.8 while "single hole" plates were used for the recombinant cell lines expressing the other subtypes. Appropriate filters (for minimum seal resistance and minimum current size) and series resistance compensation (for high quality sodium channel recordings) were applied. Data was collected at ambient room temperature.
# The recording […] solution contained (in mM): NaCl 145 mM, KCl 4 mM, CaCl2 2 mM, MgCl2 1 mM, HEPES 10 mM, Glucose 10 mM, pH 7.4 (NaOH). The […] recording solution contained (in mM): CsF 120 mM, CsCl 20 mM, NaCl 10 mM, EGTA 10 mM, HEPES 10 mM, pH 7.2 (CsOH). Currents were recorded at 25 kHz sampling frequency and filtered at 5 kHz. Series resistance compensation was applied at 65%.
# Vehicle (VEH) is the control condition where cells are exposed to 0.3 % DMSO without compound. All runs include VEH controls being exposed to the same voltage protocols to assess non-compound related phenomena such as run down and then used to isolate compound dependent effects on currents.
# To check for state-dependence inhibition, the following voltage-sequence was applied every 20 seconds: From a resting membrane potential of-120 mV, the first test pulse (P1; 20 ms to -10 mV) was applied to check for channels in the Resting State followed by a brief recovery (20 ms to -120 mV), then holding the membrane voltage to V1/2 (4 seconds at voltage to obtain half the channel at Rest and half Inactivated) with a subsequent second test pulse (P2; 20 ms to -10 mV) to check for channels in the Inactivated State, followed by another brief recovery (20 ms to -120 mV) and a final third test pulse (P3; 20 ms to -10 mV) to check for recovered channels.
# To check for frequency-dependent inhibition, a 10 Hz protocol and a 20 Hz protocol were applied; namely,
# From a resting membrane potential of -120 mV, 40-pulses (10 ms to -10 mV) was applied at 10 Hz (at 100 ms between pulses) and then at 20 Hz (at 50 ms between pulses).
# Each parameter was recorded (P1, P2, P3, P40 from 10Hz and P40 from 20Hz) during a control period (lasting ~ 5 minutes) when establishing the baseline and during compound period (lasting ~ 12 minutes) when test compound (or vehicle) was applied. For each parameter, the value at the end of the compound period was normalized to the vehicle baseline; as follows Normalized Inhibition (NormCPD) = (CPD Valueend CPD period)/(VEH Valueend Control Period) [formula]
# To adjust for any variance in the Na^+ current signal during the compound period (owing to cumulative inactivation independent of compound or shifts in biophysics over time), a dedicated segment of the recording wells in each 384 plate were dedicated to having only vehicle exposure. These vehicle-only recordings were used to correct for any apparent "run-up" or "run-down" in the experiment. Normalized Inhibition (NormVEH) = (VEH Valueend CPD period)/(VEH Valueend Control Period) [formula]
# The adjusted inhibition was calculated as follows: % Inhibitioncorrected = 100 × (NormCPD −NormVEH)/(100−NormVEH) [formula]
# Percent inhibition was determined and IC50 values were calculated using a 4 parameter logistic model within XLFit Software (IDBS, Boston MA): % Inhibitioncorrected = A + ((B−A))/((1 + (((x)/(C)))^D) [formula] where A and B are the maximal and minimum inhibition respectively, C is the IC50 concentration and D is the (Hill) slope.
# T1 sequence (Q9Y5Y9 whole entry): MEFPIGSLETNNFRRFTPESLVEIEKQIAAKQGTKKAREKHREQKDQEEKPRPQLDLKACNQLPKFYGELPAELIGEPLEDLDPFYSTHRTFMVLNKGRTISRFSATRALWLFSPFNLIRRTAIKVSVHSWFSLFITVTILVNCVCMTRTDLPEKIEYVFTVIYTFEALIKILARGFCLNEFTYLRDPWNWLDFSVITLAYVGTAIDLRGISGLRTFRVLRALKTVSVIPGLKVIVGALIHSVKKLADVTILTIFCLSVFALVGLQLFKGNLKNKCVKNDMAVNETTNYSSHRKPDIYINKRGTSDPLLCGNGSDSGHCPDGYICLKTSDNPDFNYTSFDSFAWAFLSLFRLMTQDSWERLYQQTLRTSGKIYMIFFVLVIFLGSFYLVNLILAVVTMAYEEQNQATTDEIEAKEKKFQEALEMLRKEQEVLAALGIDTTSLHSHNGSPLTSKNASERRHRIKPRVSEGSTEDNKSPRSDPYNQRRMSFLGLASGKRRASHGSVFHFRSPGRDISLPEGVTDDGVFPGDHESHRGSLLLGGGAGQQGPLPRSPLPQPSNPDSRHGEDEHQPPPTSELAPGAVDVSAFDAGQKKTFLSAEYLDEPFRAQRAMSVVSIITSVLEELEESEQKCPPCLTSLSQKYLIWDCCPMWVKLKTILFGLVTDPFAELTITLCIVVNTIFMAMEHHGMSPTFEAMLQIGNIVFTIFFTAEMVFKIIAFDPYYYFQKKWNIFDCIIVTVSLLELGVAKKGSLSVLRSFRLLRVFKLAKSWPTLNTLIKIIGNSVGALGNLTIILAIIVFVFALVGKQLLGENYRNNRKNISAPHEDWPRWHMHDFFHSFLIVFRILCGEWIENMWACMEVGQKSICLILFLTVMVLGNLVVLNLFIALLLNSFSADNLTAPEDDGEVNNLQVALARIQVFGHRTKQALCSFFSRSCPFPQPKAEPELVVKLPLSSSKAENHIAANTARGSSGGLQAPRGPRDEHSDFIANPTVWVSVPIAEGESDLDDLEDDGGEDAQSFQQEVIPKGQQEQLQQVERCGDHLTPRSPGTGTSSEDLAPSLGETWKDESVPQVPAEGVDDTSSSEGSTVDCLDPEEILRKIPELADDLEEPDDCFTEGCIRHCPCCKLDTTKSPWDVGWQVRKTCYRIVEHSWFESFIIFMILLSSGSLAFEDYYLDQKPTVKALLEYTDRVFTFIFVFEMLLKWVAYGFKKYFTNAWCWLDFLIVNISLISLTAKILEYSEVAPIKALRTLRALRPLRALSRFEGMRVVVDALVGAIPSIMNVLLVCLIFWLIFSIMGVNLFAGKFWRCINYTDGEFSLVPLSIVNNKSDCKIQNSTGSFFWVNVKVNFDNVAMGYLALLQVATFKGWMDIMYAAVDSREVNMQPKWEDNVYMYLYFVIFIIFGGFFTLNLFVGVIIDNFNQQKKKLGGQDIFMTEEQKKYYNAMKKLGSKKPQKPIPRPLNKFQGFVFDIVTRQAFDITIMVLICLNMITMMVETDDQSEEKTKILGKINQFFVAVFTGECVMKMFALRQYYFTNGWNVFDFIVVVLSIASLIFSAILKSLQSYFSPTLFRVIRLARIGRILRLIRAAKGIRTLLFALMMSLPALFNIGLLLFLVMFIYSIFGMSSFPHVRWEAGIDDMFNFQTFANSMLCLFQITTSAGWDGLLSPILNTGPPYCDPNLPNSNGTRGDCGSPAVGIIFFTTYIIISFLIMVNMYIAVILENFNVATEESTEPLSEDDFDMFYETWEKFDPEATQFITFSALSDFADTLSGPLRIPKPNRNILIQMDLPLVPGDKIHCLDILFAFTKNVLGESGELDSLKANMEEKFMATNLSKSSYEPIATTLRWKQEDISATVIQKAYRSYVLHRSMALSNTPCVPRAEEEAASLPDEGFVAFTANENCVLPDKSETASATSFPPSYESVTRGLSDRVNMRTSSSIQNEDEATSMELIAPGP
# T1 sequence (Q9NY72 23-215 partner): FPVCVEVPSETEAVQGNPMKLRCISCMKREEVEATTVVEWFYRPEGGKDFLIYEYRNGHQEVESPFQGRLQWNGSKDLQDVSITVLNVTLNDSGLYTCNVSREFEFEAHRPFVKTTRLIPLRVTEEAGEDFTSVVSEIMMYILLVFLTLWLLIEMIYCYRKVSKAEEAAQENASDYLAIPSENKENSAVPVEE
row,SMILES,pIC50
1,"Cc1ccc(Cl)c2c(C(=O)Nc3ccnc(C(N)=O)c3)n(CC3CCC(F)(F)C3)nc12 (single isomer, unassigned) [SC-82b, N-(2-carbamoylpyridin-4-yl)-4-chloro-2-((3,3-difluorocyclopentyl)methyl)-7-methyl-2H-indazole-3-carboxamide]",≥ 7.00
2,"O=C(Nc1ccnc(O)c1)c1c2ccccc2nn1CC1CCCCO1 (stereo not drawn) [SC-53, N-(2-hydroxypyridin-4-yl)-2-(oxan-2-ylmethyl)indazole-3-carboxamide]",5.00 to 6.00
3,"Cc1cccc2c(C(=O)Nc3cc[nH]c(=O)c3)n(CC3CCCCC3)nc12 [SC-43, 2-(cyclohexylmethyl)-7-methyl-N-(2-oxo-1,2-dihydropyridin-4-yl)-2H-indazole-3-carboxamide]",≥ 7.00
4,NS(=O)(=O)c1cc(NC(=O)c2c3cccc(C(F)F)c3nn2C[C@H]2CCCCO2)ccn1 [SC-89b],≥ 7.00
5,"O=C(Nc1cc[nH]c(=O)c1)c1c2ccccc2nn1CC1CCC1 [SC-12, 2-(cyclobutylmethyl)-N-(2-oxo-1,2-dihydropyridin-4-yl)-2H-indazole-3-carboxamide]",5.00 to 6.00
6,"O=C(Nc1ccnc(O)c1)c1c2ccc(F)cc2nn1CC1CCC(F)(F)CC1 [SC-06, 2-((4,4-difluorocyclohexyl)methyl)-6-fluoro-N-(2-hydroxypyridin-4-yl)-2H-indazole-3-carboxamide]",6.00 to 7.00
7,"CS(=O)(=O)c1cccc(NC(=O)c2c3ccccc3nn2CC2CCCCC2)c1 [SC-37, 2-(cyclohexylmethyl)-N-(3-methylsulfonylphenyl)indazole-3-carboxamide]",≥ 7.00
8,"O=C(Nc1ccnc(O)c1)c1c2cc(F)ccc2nn1CC1CCCCC1 [SC-32, 2-(cyclohexylmethyl)-5-fluoro-N-(2-hydroxypyridin-4-yl)indazole-3-carboxamide]",6.00 to 7.00
9,"CS(=O)(=O)c1cc(NC(=O)c2c3ccccc3nn2CC2CCCCC2)ccc1F [SC-77, 2-(cyclohexylmethyl)-N-(4-fluoro-3-methylsulfonylphenyl)indazole-3-carboxamide]",≥ 7.00
10,"CC(C)(O)c1cccc(NC(=O)c2c3ccccc3nn2CC2CCCCC2)c1 [SC-26, 2-(cyclohexylmethyl)-N-(3-(2-hydroxypropan-2-yl)phenyl)-2H-indazole-3-carboxamide]",5.00 to 6.00
11,"NS(=O)(=O)c1cccc(NC(=O)c2c3ccccc3nn2CC2CCCO2)c1 (racemic) [SC-16, N-(3-sulfamoylphenyl)-2-((tetrahydrofuran-2-yl)methyl)-2H-indazole-3-carboxamide]",5.00 to 6.00
12,"NS(=O)(=O)c1cccc(NC(=O)c2c3cccc(C4CC4)c3nn2CC2CCOCC2)c1 [SC-85, 7-cyclopropyl-N-(3-sulfamoylphenyl)-2-((tetrahydro-2H-pyran-4-yl)methyl)-2H-indazole-3-carboxamide]",≥ 7.00
13,"O=C(Nc1ccnc(O)c1)c1c2ccccc2nn1CC1CCOC1 (stereo not drawn) [SC-50, N-(2-hydroxypyridin-4-yl)-2-(oxolan-3-ylmethyl)indazole-3-carboxamide]",5.00 to 6.00

# More lines, now with the values ahead:
row,pIC50,SMILES
1,6.00 to 7.00,"CS(=O)(=O)c1cccc(NC(=O)c2c3ccc(F)cc3nn2CC2CC(F)(F)C2)c1 [SC-62, 2-[(3,3-difluorocyclobutyl)methyl]-6-fluoro-N-(3-methylsulfonylphenyl)indazole-3-carboxamide]"
2,6.00 to 7.00,"C[C@@H](C1CCCCC1)n1nc2ccccc2c1C(=O)Nc1cccc(S(C)(=O)=O)c1 (single isomer, unassigned) [SC-74a]"
3,6.00 to 7.00,"O=C(Nc1ccnc(O)c1)c1c2ccccc2nn1CC1CCCCC1 [SC-10, 2-(cyclohexylmethyl)-N-(2-hydroxypyridin-4-yl)-2H-indazole-3-carboxamide]"
4,6.00 to 7.00,"O=C(Nc1ccnc(O)c1)c1c2ccccc2nn1CC1CCCCCC1 [SC-13, 2-(cyclohcptylmethyl)-N-(2-hydroxypyridin-4-yl)indazole-3-carboxamide]"
5,6.00 to 7.00,"CS(=O)(=O)c1cccc(NC(=O)c2c3ccc(F)cc3nn2CCC2CCCC2)c1 [SC-61, 2-(2-cyclopentylethyl)-6-fluoro-N-(3-methylsulfonylphenyl)indazole-3-carboxamide]"
6,6.00 to 7.00,"CS(=O)(=O)c1cccc(NC(=O)c2c3ccccc3nn2CC2CCC(F)(F)CC2)c1 [SC-22, 2-[(4,4-difluorocyclohexyl)methyl]-N-(3-methylsulfonylphenyl)indazole-3-carboxamide]"
7,≥ 7.00,"O=C(Nc1ccnc(O)c1)c1c2cccc(C(F)(F)F)c2nn1CC1CCCCC1 [SC-42, 2-(cyclohexylmethyl)-N-(2-hydroxypyridin-4-yl)-7-(trifluoromethyl)indazole-3-carboxamide]"
8,6.00 to 7.00,"NC(=O)c1cccc(NC(=O)c2c3ccc(F)cc3nn2CC2CCC(F)(F)CC2)c1 [SC-76, N-(3-Carbamoylphenyl)-2-[(4,4-difluorocyclohexyl)methyl]-6-fluoro-2H-indazole-3-carboxamide]"
9,6.00 to 7.00,"CS(=O)(=O)c1cccc(NC(=O)c2c3ccccc3nn2CC2CCCCO2)c1 (stereo not drawn) [SC-58, N-(3-methylsulfonylphenyl)-2-(oxan-2-ylmethyl)indazole-3-carboxamide]"
10,≥ 7.00,"NC(=O)c1cccc(NC(=O)c2c3ccccc3nn2CC2CCCCC2)c1 [SC-17, N-(3-carbamoylphenyl)-2-(cyclohexylmethyl)indazole-3-carboxamide]"
11,5.00 to 6.00,"CS(=O)(=O)c1cccc(NC(=O)c2c3ccc(F)cc3nn2CC2CCC3(CC2)CC3)c1 [SC-70, 6-fluoro-N-(3-methylsulfonylphenyl)-2-(spiro[2.5]octan-6-ylmethyl)indazole-3-carboxamide]"
12,5.00 to 6.00,"Cn1ccc(NC(=O)c2c3ccccc3nn2CC2CCCCC2)cc1=O [SC-39, 2-(cyclohexylmethyl)-N-(1-methyl-2-oxo-1,2-dihydropyridin-4-yl)-2H-indazole-3-carboxamide]"
13,≥ 7.00,"Cc1ccc(Cl)c2c(C(=O)Nc3cccc(S(N)(=O)=O)c3)n(CC3CCCCO3)nc12 (single isomer, unassigned) [SC-84a, 4-chloro-7-methyl-N-(3-sulfamoylphenyl)-2-((tetrahydro-2H-pyran-2-yl)methyl)-2H-indazole-3-carboxamide]"
14,≥ 7.00,"CC1(C)CC(Cn2nc3cc(F)ccc3c2C(=O)Nc2cccc(S(C)(=O)=O)c2)C1 [SC-68, 2-[(3,3-dimethylcyclobutyl)methyl]-6-fluoro-N-(3-methylsulfonylphenyl)indazole-3-carboxamide]"
15,5.00 to 6.00,"CS(=O)(=O)c1cccc(NC(=O)c2c3ccccc3nn2CC2CCOCC2)c1 [SC-14, N-(3-methylsulfonylphenyl)-2-(oxan-4-ylmethyl)indazole-3-carboxamide]"
16,≥ 7.00,"NS(=O)(=O)c1cccc(NC(=O)c2c3ccc(F)cc3nn2CC2CCCCC2)c1 [SC-28, 2-(cyclohexylmethyl)-6-fluoro-N-(3-sulfamoylphenyl)indazole-3-carboxamide]"
17,6.00 to 7.00,"O=C(Nc1ccnc(O)c1)c1c2c(F)cccc2nn1CC1CCCCC1 [SC-49, 2-(cyclohexylmethyl)-4-fluoro-N-(2-hydroxypyridin-4-yl)indazole-3-carboxamide]"
18,6.00 to 7.00,"Cc1ccc2nn(CC3CCCCC3)c(C(=O)Nc3cccc(S(C)(=O)=O)c3)c2c1 [SC-46, 2-(cyclohexylmethyl)-5-methyl-N-(3-methylsulfonylphenyl)indazole-3-carboxamide]"
19,5.00 to 6.00,"CS(=O)(=O)c1cccc(NC(=O)c2c3ccccc3nn2CC2CCOC2)c1 (stereo not drawn) [SC-56, N-(3-methylsulfonylphenyl)-2-(oxolan-3-ylmethyl)indazole-3-carboxamide]"
20,6.00 to 7.00,"CS(=O)(=O)c1cccc(NC(=O)c2c3ccc(F)cc3nn2CC2CCOCC2)c1 [SC-60, 6-fluoro-N-(3-methylsulfonylphenyl)-2-(oxan-4-ylmethyl)indazole-3-carboxamide]"
